Data from article PMC9002265, “A New Series of Strigolactone Analogs Derived From Cinnamic Acids as Germination Inducers for Root Parasitic Plants” (Frontiers in Plant Science, 2022).
pIC50: −log10 of the molar value.

What was measured:
ShHTL7 = target: T1, ShHTL7 (Striga hermonthica, UniProt A0A0M3PNA2); assay: YLG assay (inhibition of YLG hydrolysis) with recombinant ShHTL7; assay type: biochemical; details: 1 h incubation, read-out: IC50 in YLG assay
T1 sequence (A0A0M3PNA2 1-271): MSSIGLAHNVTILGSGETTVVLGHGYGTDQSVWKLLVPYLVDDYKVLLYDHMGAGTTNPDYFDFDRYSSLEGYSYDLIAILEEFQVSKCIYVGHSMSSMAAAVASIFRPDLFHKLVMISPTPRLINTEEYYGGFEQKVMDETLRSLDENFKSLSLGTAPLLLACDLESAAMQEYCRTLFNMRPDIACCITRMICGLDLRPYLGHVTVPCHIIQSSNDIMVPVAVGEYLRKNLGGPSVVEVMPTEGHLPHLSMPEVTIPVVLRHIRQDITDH
Protocol: (§1) The ORF fragment of ShHTL6 and ShHTL7 was synthesized using IDT gBlock service. The PCR amplified ShHTL6 and ShHTL7 fragment was digested with Nco I and EcoR I, and the digested product was introduced into a modified pET28 vector with an N-terminal His8 tag. Escherichia coli BL21(DE3) was used for protein expression. The overnight culture (12 ml) was added to a fresh LB medium (1.2 L) containing kanamycin (50 mg/L) at 37°C. After OD600 reached 0.8, 0.1 mM IPTG was added and the cell was further incubated at 16°C for 21 h. The culture medium was centrifuged at 3700 g and the pellet was stored at −20°C until use. The pellet was resuspended and sonicated in a lysis buffer (50 mM Tris buffer (pH 8.0) containing 500 mM NaCl, 10 mM 2-mercaptoethanol, and 10% glycerol). The supernatant was purified by Ni Sepharose TM 6 Fast Flow (500 μl, Cytiva). After washing with the washing buffer (50 mM Tris buffer (pH 8.0) containing 500 mM NaCl and 20 mM imidazole), The bound protein was eluted with elution buffer (50 mM Tris buffer (pH 8.0) containing 500 mM NaCl and 200 mM imidazole). The eluate was concentrated using VIVASPIN Turbo 15 (Sartorius), and the concentration was adjusted to 5 mg/ml. The purified protein was aliquoted to the appropriate volume, immediately frozen in liquid nitrogen, and stored at −80°C until use.
(§2) After YLG was incubated with recombinant ShHTL6 or ShHTL7 for 1 h, the fluorescence was measured by spectraMax i5 (Molecular Devices) at excitation by 480 nm and detection by 520 nm. IC50 values were calculated using the online tool Quest GraphTM IC50 Calculator (AAT Bioquest, Inc., United States; https://www.aatbio.com/tools/ ic50-calculator).

ShHTL6 = target: T2, ShHTL6 (Striga hermonthica, UniProt A0A0M4AUV4); assay: YLG assay (inhibition of YLG hydrolysis) with recombinant ShHTL6; assay type: biochemical
T2 sequence (A0A0M4AUV4 1-271): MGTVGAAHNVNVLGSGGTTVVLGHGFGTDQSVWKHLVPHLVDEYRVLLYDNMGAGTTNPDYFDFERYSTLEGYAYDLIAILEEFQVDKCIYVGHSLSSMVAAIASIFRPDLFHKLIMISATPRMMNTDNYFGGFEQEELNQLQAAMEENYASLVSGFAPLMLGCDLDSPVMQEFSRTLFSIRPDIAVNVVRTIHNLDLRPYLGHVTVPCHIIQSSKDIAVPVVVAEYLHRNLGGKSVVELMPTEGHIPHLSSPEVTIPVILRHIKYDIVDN
Protocol: as §1, §2

Orobanche minor seeds = assay: Germination assay, Orobanche minor seeds; assay type: in vivo; details: O. minor seeds
Protocol: Orobanche minor seeds were washed with 70% EtOH, and then sonicated for 4 min in 1% sodium hypochlorite solution containing 0.2% Tween-20. The seeds were then washed 10 times with sterile water and suspended in 0.1% agar solution. The seeds were loaded onto 5-mm glass fiber filter disks (20–70 seeds/disk) and were conditioned at 23°C for 15 days. Each disk was transferred into a 96-well plate. A 30 μl aliquot of test chemical solution was added to the well. For the germination assay, the chemical solutions were prepared by 1,000 times dilution from each acetone stock solution with water (final acetone concentration was 0.1%). GR24 solution (0.1% acetone) and sterile water (0.1% acetone) was used as positive and negative control, respectively. The 96 well plates were incubated for 5 days at 23°C and the number of total seeds and germinated seeds was counted.

AtD14 = target: T3, AtD14 (Arabidopsis thaliana, UniProt Q9SQR3); assay: Hydrolysis assay with recombinant AtD14; assay type: biochemical; details: 10 μM substrate, 30°C, 60 min
T3 construct: The cDNA of AtD14 was introduced into pMALHis vector; MBP; His6; made in house; host or cells: E. coli BL21 (DE3)
T3 sequence (Q9SQR3 1-267): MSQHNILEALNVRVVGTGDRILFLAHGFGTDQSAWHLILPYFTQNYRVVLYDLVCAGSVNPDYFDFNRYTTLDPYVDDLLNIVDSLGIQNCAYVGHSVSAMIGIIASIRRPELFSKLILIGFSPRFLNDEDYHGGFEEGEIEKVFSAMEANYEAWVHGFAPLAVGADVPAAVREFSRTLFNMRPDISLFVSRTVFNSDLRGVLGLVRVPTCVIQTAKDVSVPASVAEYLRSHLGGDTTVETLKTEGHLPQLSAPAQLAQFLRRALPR
Protocol: The cDNA of AtD14 was introduced into pMALHis vector that has both MBP-tag and His6-tag. The vector was transformed in to E. coli BL21 (DE3) and the cell was precultured in LB medium containing 50 μg/ml ampicillin. Overnight cultures (10 ml) were added to fresh LB medium (1 L) containing 50 μg/ml ampicillin and it was cultured at 37°C. After OD600 reached to 0.8, the cultures were cooled at 16°C for 1 h, and then 0.1 mM IPTG was added. The culture was further incubated at 16°C for 20 h. The culture medium was centrifuged at 3,700 g and the pellet was stored at −20°C until use. The pellet was resuspended and sonicated in lysis buffer (50 mM Tris buffer (pH 8.0) containing 500 mM NaCl, 10 mM 2-mercaptoethanol, and 10% glycerol). The supernatant was purified by Ni Sepharose TM 6 Fast Flow (500 μl, Cytiva) After washing with the washing buffer (50 mM Tris buffer (pH 8.0) containing 500 mM NaCl and 20 mM imidazole), The bound protein was eluted with elution buffer (50 mM Tris buffer (pH 8.0) containing 500 mM NaCl and 200 mM imidazole). The eluate was concentrated using VIVASPIN Turbo 15 (Sartorius), and the concentration was adjusted to 5 mg/ml. The purified protein was aliquoted to the appropriate volume, immediately frozen in liquid nitrogen, and stored at −80°C until use.
Hydrolysis assays were carried out at 30°C for 60 min in 100 μl of a reaction buffer containing 0.13 pmol recombinant ShHTL7 or AtD14, 10 μM of substrate in 50 mM Phosphate-Na buffer (pH 7.0) containing 2% acetone. The enzyme reaction was stopped by addition of 100 μl of acetonitrile containing 1-naphtaleneacetic acid (NAA; 0.5 ng/μl) as an internal standard. After centrifuged at 13,000 rpm for 5 min, each sample was subjected to LC–MS/MS analysis equipped with reverse-phase column (CORTECS UPLC Phenyl 1.6 μm, ϕ2.1 × 75 mm; Waters). The concentration of remaining substrate and reaction product was calculated by using NAA as an internal standard. Detailed information about the analytical condition is described in Supplementary Table 1.

CC1=CC(OC(=O)/C=C\c2ccccc2)OC1=O (stereo not shown) [c-CASL1]
pIC50 (ShHTL7): 6.23
pIC50 (ShHTL6): 6.05
germination-inducing activity, times stronger than the corresponding trans isomer (Orobanche minor seeds): approximately 10 times
hydrolysis by AtD14 (AtD14): can hydrolyze
